Measurements: patent publication US10681909B2, “Herbicidal triazoles” (FMC Corporation, priority 2014, dated 2020)

Columns and labels:
blackgrass = assay: Test C preemergence; type: in vivo, Alopecurus myosuroides; conditions: for Plant response rating (scale of 0 to 100 where 0 is no effect and 100 is complete control): Blackgrass, preemergence; for Blackgrass plant response rating (0 to 100): Preemergence, visual rating after 13 to 15 d
How it was run: (§1)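 Test chemicals in a non-phytotoxic solvent mixture with surfactant were applied to pots of plants at 2 to 18 cm (1- to 4-leaf stage) for postemergence treatment, grown in a peat-based medium with vermiculite, starter nutrients and dolomitic limestone. Preemergence treatment was to seeds freshly planted in loam soil mixed with sand.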

canarygrass [1] = assay: Test D preemergence; type: in vivo, Phalaris minor; conditions: for Plant response rating (0 to 100), Canarygrass: 16 g ai/ha, 0 is no effect, 100 is complete control; for Plant response rating: Canarygrass: scale 0 to 100
How it was run: (§2)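 Visual injury ratings compared with untreated controls, taken 14 to 21 d after treatment in a controlled growth environment. Test chemicals were formulated in a surfactant-containing non-phytotoxic solvent and applied either preemergence to seeds in silt loam soil or postemergence to plants at the 1- to 4-leaf stage.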

oat, wild = assay: Test D postemergence; type: in vivo, Avena fatua; conditions: scale 0 to 100
How it was run: as §2

pigweed = assay: Test C preemergence; type: in vivo, Amaranthus retroflexus; conditions: for Plant response rating (scale of 0 to 100 where 0 is no effect and 100 is complete control): Pigweed, preemergence; for Pigweed plant response rating (0 to 100): Preemergence, visual rating after 13 to 15 d
How it was run: as §1

galium = assay: Test D postemergence; type: in vivo, Galium aparine; conditions: scale 0 to 100
How it was run: as §2

wheat, winter = assay: Test D postemergence; type: in vivo, Triticum aestivum; conditions: scale 0 to 100
How it was run: as §2

wheat, spring = assay: Test D postemergence; type: in vivo, Triticum aestivum; conditions: scale 0 to 100
How it was run: as §2

chickweed = assay: Test D postemergence; type: in vivo, Stellaria media; conditions: scale 0 to 100
How it was run: as §2

ragweed = assay: Test A preemergence; type: in vivo, Ambrosia elatior; conditions: 0 to 100 scale (0 no effect, 100 complete control)
How it was run: (§3)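 Visual 0–100 ratings (0 no effect, 100 complete control) made roughly 10 days after treatment, comparing greenhouse-grown plants to untreated controls. Formulated test chemicals, with surfactant, went either as directed soil spray at planting or onto 2–10 cm seedlings bearing one to two leaves.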

ryegrass, Italian = assay: Test A postemergence; type: in vivo, Lolium multiflorum; conditions: 0 to 100 scale (0 no effect, 100 complete control), approx. 10 d
How it was run: as §3

bluegrass = assay: Test D postemergence; type: in vivo, Poa annua; conditions: scale 0 to 100
How it was run: as §2

buckwheat, wild = assay: Test D postemergence; type: in vivo, Polygonum convolvulus; conditions: scale 0 to 100
How it was run: as §2

canarygrass [2] = assay: Test D postemergence; type: in vivo, Phalaris minor; conditions: scale 0 to 100
How it was run: as §2

CCOc1nc(-c2ccccc2)nn1Cc1ccnc(C(F)(F)F)c1 [Compound 27]
Plant response rating (scale of 0 to 100 where 0 is no effect and 100 is complete control) (blackgrass; 125 g ai/ha): 50 | Plant response rating (scale of 0 to 100 where 0 is no effect and 100 is complete control) (blackgrass; 250 g ai/ha): 90 | Blackgrass plant response rating (0 to 100) (blackgrass; 31 g ai/ha): 5 | Blackgrass plant response rating (0 to 100) (blackgrass; 62 g ai/ha): 5 | Plant response rating (0 to 100), Canarygrass (canarygrass [1]): 35 | Plant response rating: Canarygrass (canarygrass [1]; 31 g ai/ha): 55 | Plant response rating: Canarygrass (canarygrass [1]; 62 g ai/ha): 75 | Plant response rating: Canarygrass (canarygrass [1]; 125 g ai/ha): 98 | Plant response rating: Oat, Wild (oat, wild; 16 g ai/ha): 35 | Plant response rating: Oat, Wild (oat, wild; 31 g ai/ha): 45 | Plant response rating: Oat, Wild (oat, wild; 62 g ai/ha): 50 | Plant response rating: Oat, Wild (oat, wild; 125 g ai/ha): 60 | Plant response rating (scale of 0 to 100 where 0 is no effect and 100 is complete control) (pigweed; 125 g ai/ha): 100 | Plant response rating (scale of 0 to 100 where 0 is no effect and 100 is complete control) (pigweed; 250 g ai/ha): 100 | Pigweed plant response rating (0 to 100) (pigweed; 31 g ai/ha): 100 | Pigweed plant response rating (0 to 100) (pigweed; 62 g ai/ha): 100 | Plant response rating: Galium (galium; 16 g ai/ha): 70 | Plant response rating: Galium (galium; 31 g ai/ha): 75 | Plant response rating: Galium (galium; 62 g ai/ha): 100 | Plant response rating: Galium (galium; 125 g ai/ha): 100 | Plant response rating: Wheat, Winter (wheat, winter; 16 g ai/ha): 25 | Plant response rating: Wheat, Winter (wheat, winter; 31 g ai/ha): 25 | Plant response rating: Wheat, Winter (wheat, winter; 62 g ai/ha): 30 | Plant response rating: Wheat, Winter (wheat, winter; 125 g ai/ha): 30 | Plant response rating: Wheat, Spring (wheat, spring; 16 g ai/ha): 15 | Plant response rating: Wheat, Spring (wheat, spring; 31 g ai/ha): 15 | Plant response rating: Wheat, Spring (wheat, spring; 62 g ai/ha): 20 | Plant response rating: Wheat, Spring (wheat, spring; 125 g ai/ha): 35 | Plant response rating: Chickweed (chickweed; 16 g ai/ha): 85 | Plant response rating: Chickweed (chickweed; 31 g ai/ha): 95 | Plant response rating: Chickweed (chickweed; 62 g ai/ha): 100 | Plant response rating: Chickweed (chickweed; 125 g ai/ha): 100 | Plant response rating, Ragweed (ragweed; 125 g ai/ha): 90 | Plant response rating, Ragweed (ragweed; 500 g ai/ha, approx. 10 d): 100 | Plant response rating, Ryegrass, Italian (ryegrass, Italian; 125 g ai/ha): 50 | Plant response rating, Ryegrass, Italian (ryegrass, Italian; 500 g ai/ha): 90 | Plant response rating: Bluegrass (bluegrass; 16 g ai/ha): 35 | Plant response rating: Bluegrass (bluegrass; 31 g ai/ha): 60 | Plant response rating: Bluegrass (bluegrass; 62 g ai/ha): 65 | Plant response rating: Bluegrass (bluegrass; 125 g ai/ha): 70 | Plant response rating: Buckwheat, Wild (buckwheat, wild; 16 g ai/ha): 65 | Plant response rating: Buckwheat, Wild (buckwheat, wild; 31 g ai/ha): 80 | Plant response rating: Buckwheat, Wild (buckwheat, wild; 62 g ai/ha): 70 | Plant response rating: Buckwheat, Wild (buckwheat, wild; 125 g ai/ha): 85 | Plant response rating: Canarygrass (canarygrass [2]; 16 g ai/ha): 50 | Plant response rating: Canarygrass (canarygrass [2]; 31 g ai/ha): 65 | Plant response rating: Canarygrass (canarygrass [2]; 62 g ai/ha): 70 | Plant response rating: Canarygrass (canarygrass [2]; 125 g ai/ha): 60

FC(F)(F)COc1nc(-c2ccc(Cl)cc2)nn1Cc1ccnc(C(F)(F)F)c1 [Compound 31]
Plant response rating (scale of 0 to 100 where 0 is no effect and 100 is complete control) (blackgrass; 125 g ai/ha): 90 | Plant response rating (scale of 0 to 100 where 0 is no effect and 100 is complete control) (blackgrass; 250 g ai/ha): 95 | Blackgrass plant response rating (0 to 100) (blackgrass; 31 g ai/ha): 80 | Blackgrass plant response rating (0 to 100) (blackgrass; 62 g ai/ha): 70 | Plant response rating (0 to 100), Canarygrass (canarygrass [1]): 50 | Plant response rating: Canarygrass (canarygrass [1]; 31 g ai/ha): 85 | Plant response rating: Canarygrass (canarygrass [1]; 62 g ai/ha): 90 | Plant response rating: Canarygrass (canarygrass [1]; 125 g ai/ha): 100 | Plant response rating: Oat, Wild (oat, wild; 16 g ai/ha): 35 | Plant response rating: Oat, Wild (oat, wild; 31 g ai/ha): 45 | Plant response rating: Oat, Wild (oat, wild; 62 g ai/ha): 70 | Plant response rating: Oat, Wild (oat, wild; 125 g ai/ha): 75 | Plant response rating (scale of 0 to 100 where 0 is no effect and 100 is complete control) (pigweed; 125 g ai/ha): 100 | Plant response rating (scale of 0 to 100 where 0 is no effect and 100 is complete control) (pigweed; 250 g ai/ha): 100 | Pigweed plant response rating (0 to 100) (pigweed; 31 g ai/ha): 98 | Pigweed plant response rating (0 to 100) (pigweed; 62 g ai/ha): 100 | Plant response rating: Galium (galium; 16 g ai/ha): 70 | Plant response rating: Galium (galium; 31 g ai/ha): 75 | Plant response rating: Galium (galium; 62 g ai/ha): 80 | Plant response rating: Galium (galium; 125 g ai/ha): 90 | Plant response rating: Wheat, Winter (wheat, winter; 16 g ai/ha): 20 | Plant response rating: Wheat, Winter (wheat, winter; 31 g ai/ha): 20 | Plant response rating: Wheat, Winter (wheat, winter; 62 g ai/ha): 20 | Plant response rating: Wheat, Winter (wheat, winter; 125 g ai/ha): 30 | Plant response rating: Wheat, Spring (wheat, spring; 16 g ai/ha): 30 | Plant response rating: Wheat, Spring (wheat, spring; 31 g ai/ha): 35 | Plant response rating: Wheat, Spring (wheat, spring; 62 g ai/ha): 40 | Plant response rating: Wheat, Spring (wheat, spring; 125 g ai/ha): 45 | Plant response rating: Chickweed (chickweed; 16 g ai/ha): 80 | Plant response rating: Chickweed (chickweed; 31 g ai/ha): 90 | Plant response rating: Chickweed (chickweed; 62 g ai/ha): 100 | Plant response rating: Chickweed (chickweed; 125 g ai/ha): 100 | Plant response rating, Ragweed (ragweed; 125 g ai/ha): 50 | Plant response rating, Ragweed (ragweed; 500 g ai/ha): 70 | Plant response rating, Ryegrass, Italian (ryegrass, Italian; 125 g ai/ha): 50 | Plant response rating, Ryegrass, Italian (ryegrass, Italian; 500 g ai/ha): 80 | Plant response rating: Bluegrass (bluegrass; 16 g ai/ha): 50 | Plant response rating: Bluegrass (bluegrass; 31 g ai/ha): 65 | Plant response rating: Bluegrass (bluegrass; 62 g ai/ha): 75 | Plant response rating: Bluegrass (bluegrass; 125 g ai/ha): 85 | Plant response rating: Buckwheat, Wild (buckwheat, wild; 16 g ai/ha): 65 | Plant response rating: Buckwheat, Wild (buckwheat, wild; 31 g ai/ha): 75 | Plant response rating: Buckwheat, Wild (buckwheat, wild; 62 g ai/ha): 75 | Plant response rating: Buckwheat, Wild (buckwheat, wild; 125 g ai/ha): 75 | Plant response rating: Canarygrass (canarygrass [2]; 16 g ai/ha): 65 | Plant response rating: Canarygrass (canarygrass [2]; 31 g ai/ha): 75 | Plant response rating: Canarygrass (canarygrass [2]; 62 g ai/ha): 80 | Plant response rating: Canarygrass (canarygrass [2]; 125 g ai/ha): 80
